Source: ChEMBL document CHEMBL1156709, “Evaluation of ursolic acid isolated from Ilex paraguariensis and derivatives on aromatase inhibition” (Eur J Med Chem, 2008)
pIC50: −log10 of the molar value.

molecular target: T1, Aromatase (Homo sapiens, UniProt P11511); experiment: Inhibition of aromatase at 40.7 uM
T1 sequence (P11511 whole entry): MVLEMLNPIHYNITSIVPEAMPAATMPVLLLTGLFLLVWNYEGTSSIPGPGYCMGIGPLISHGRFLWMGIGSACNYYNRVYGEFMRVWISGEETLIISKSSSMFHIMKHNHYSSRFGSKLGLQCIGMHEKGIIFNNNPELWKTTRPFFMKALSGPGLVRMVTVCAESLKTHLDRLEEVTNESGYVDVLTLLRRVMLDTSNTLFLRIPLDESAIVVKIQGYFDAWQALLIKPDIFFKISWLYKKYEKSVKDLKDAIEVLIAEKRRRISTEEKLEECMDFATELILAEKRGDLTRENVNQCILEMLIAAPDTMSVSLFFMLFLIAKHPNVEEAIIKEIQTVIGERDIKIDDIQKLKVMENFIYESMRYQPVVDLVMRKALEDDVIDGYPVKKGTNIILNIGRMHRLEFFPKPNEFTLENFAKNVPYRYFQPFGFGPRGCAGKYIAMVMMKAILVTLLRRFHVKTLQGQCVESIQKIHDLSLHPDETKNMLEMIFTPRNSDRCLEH

Compound	inhibition at 40.7 µM [%]
CC1(C)CC[C@]2(C(=O)O)CC[C@]3(C)C(=CC[C@@H]4[C@@]5(C)CC[C@H](O)C(C)(C)[C@@H]5CC[C@]43C)[C@@H]2C1 [OLEANOLIC_ACID]	12
C[C@H]1[C@H](C)CC[C@]2(C(=O)O)CC[C@]3(C)C(=CC[C@@H]4[C@@]5(C)CC[C@H](O)C(C)(C)[C@@H]5CC[C@]43C)[C@H]12 [URSOLIC ACID]	12

molecular target: T1, Aromatase; experiment: Inhibition of aromatase in human placental microsomes assessed as tritiated water release after 15 mins using [1-beta, 3H]androstenedione as substrate by scintillation counting; set-up: species or system Placenta

Compound	pIC50
C[C@H]1[C@H](C)CC[C@]2(C(=O)NCCCN3CCN(CCCN)CC3)CC[C@]3(C)C(=CC[C@@H]4[C@@]5(C)CC[C@H](O)C(C)(C)[C@@H]5CC[C@]43C)[C@H]12	> 3.30
CC(=O)O[C@H]1CC[C@]2(C)[C@H]3CC=C4[C@@H]5[C@@H](C)[C@H](C)CC[C@]5(C(=O)NCCCN5CCN(CCCN)CC5)CC[C@@]4(C)[C@]3(C)CC[C@H]2C1(C)C	> 3.30
C[C@H]1[C@H](C)CC[C@]2(C(=O)O)CC[C@]3(C)C(=CC[C@@H]4[C@@]5(C)CCC(=O)NC(C)(C)[C@@H]5CC[C@]43C)[C@H]12	< 3.30
C=C(C)[C@@H]1CC[C@]2(C)[C@H](CC=C3[C@@H]4[C@@H](C)[C@H](C)CC[C@]4(C(=O)O)CC[C@]32C)[C@@]1(C)CCC#N	< 3.30
C[C@H]1[C@H](C)CC[C@]2(C(=O)O)CC[C@]3(C)C(=CC[C@@H]4[C@@]5(C)CC/C(=N\O)C(C)(C)[C@@H]5CC[C@]43C)[C@H]12	< 3.30
C[C@]12CCC(=O)C(O)=C1CC[C@@H]1[C@@H]2CC[C@]2(C)C(=O)CC[C@@H]12 [FORMESTANE]	6.10
C[C@H]1[C@H](C)CC[C@]2(C(=O)O)CC[C@]3(C)C(=CC[C@@H]4[C@@]5(C)CC[C@H](O)C(C)(C)[C@@H]5CC[C@]43C)[C@H]12 [URSOLIC ACID]	4.49
C[C@H]1[C@H](C)CC[C@]2(C(=O)O)CC[C@]3(C)C(=CC[C@@H]4[C@@]5(C)CCC(=O)C(C)(C)[C@@H]5CC[C@]43C)[C@H]12 [URSONIC ACID]	< 3.30

molecular target: T1, Aromatase; experiment: Inhibition of aromatase

Compound	pIC50
CC(=O)O[C@H]1CC[C@]2(C)[C@H]3CC=C4[C@@H]5[C@@H](C)[C@H](C)CC[C@]5(C(=O)O)CC[C@@]4(C)[C@]3(C)CC[C@H]2C1(C)C [O-ACETYLURSOLIC ACID]	4.07
C[C@H]1[C@H](C)CC[C@]2(C(=O)O)CC[C@]3(C)C(=CC[C@@H]4[C@@]5(C)CC[C@H](O)C(C)(C)[C@@H]5CC[C@]43C)[C@H]12 [URSOLIC ACID]	4.51
